The structures appear in SMILES notation. Bounds are passed on as bounds.

In one test the target is T1, METTL16 MTD–U6 snRNA Δ interaction (Homo sapiens, UniProt Q86W50).
T1 construct: METTL16 MTD (1–291) was subcloned to pOPINB plasmid; His tag followed by HRV 3C cleavage site (N, cleaved yes); made in house; host or cells: E. coli Rosetta (DE3)
T1 sequence (Q86W50 1-291): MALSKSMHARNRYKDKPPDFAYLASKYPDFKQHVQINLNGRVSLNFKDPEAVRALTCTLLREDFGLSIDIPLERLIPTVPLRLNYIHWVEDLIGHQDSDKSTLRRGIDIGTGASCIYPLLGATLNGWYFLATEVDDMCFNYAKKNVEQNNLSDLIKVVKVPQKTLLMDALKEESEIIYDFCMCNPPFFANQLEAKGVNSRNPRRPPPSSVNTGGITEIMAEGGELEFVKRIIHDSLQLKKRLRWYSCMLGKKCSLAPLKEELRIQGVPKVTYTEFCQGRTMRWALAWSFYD
Kind of test: FP assay with Cy5-labeled U6 snRNA Δ. The test is classed as binding.
Conditions: not given
For `CN1C(=O)C(=C2SC(NS(=O)(=O)c3cccc(C(=O)O)c3)=NC2=O)c2cc(Br)ccc21` [Compound 49], the IC50 turned out to be 5.3 µM.

The next test addresses T2, METTL16–MAT2A-hp1 mRNA interaction (METTL16 MTD 1–291, FAM-labeled MAT2A-hp1 RNA) (Homo sapiens, UniProt Q86W50).
T2 sequence (Q86W50 1-291): T1 sequence (Q86W50 1-291)
The experiment in a line: Fluorescence polarization (FP) assay, disruption of METTL16 binding to FAM-MAT2A-hp1 RNA.
Conditions: not given
In general terms: In fluorescence polarisation assays a small probe gives low polarisation when free and higher when bound to something large.
As to `COc1ccc(S(=O)(=O)NC2=NC(=O)C(=C3C(=O)Nc4ccc(C)cc43)S2)cc1` [Compound 2], the IC50 was determined as 24.3 ± 5.3 µM. In turn, `COc1ccc(S(=O)(=O)NC2=NC(=O)C(=C3C(=O)Nc4ccc(OC)cc43)S2)cc1` [Compound 3] displayed an IC50 of 23.8 ± 5.5 µM. Still for that read-out and setting: in the case of `COc1ccc(S(=O)(=O)NC2=NC(=O)C(=C3C(=O)Nc4ccc([N+](=O)[O-])cc43)S2)cc1` [Compound 4] it was 8.2 ± 0.76 µM; in that of `COc1ccc(S(=O)(=O)NC2=NC(=O)C(=C3C(=O)Nc4ccc(Br)cc43)S2)cc1` [Compound 8], 12.4 ± 2.8 µM; in that of `COc1ccc(S(=O)(=O)NC2=NC(=O)C(=C3C(=O)Nc4c(F)cccc43)S2)cc1` [Compound 11], 28.9 ± 5.8 µM. Still for that read-out and setting: in the case of `COc1ccc(S(=O)(=O)NC2=NC(=O)C(=C3C(=O)Nc4ccc(F)cc43)S2)cc1` [Compound 13] it was 26.9 ± 3.5 µM.

As to `COc1ccc(S(=O)(=O)NC2=NC(=O)C(=C3C(=O)Nc4c(Cl)cccc43)S2)cc1` [Compound 14], the IC50 is 57.6 ± 1.3 µM. The same measure, in the same setting: in the case of `COc1ccc(S(=O)(=O)NC2=NC(=O)C(=C3C(=O)Nc4cc(Cl)ccc43)S2)cc1` [Compound 15] it was 26.4 ± 5 µM; in that of `COc1ccc(S(=O)(=O)NC2=NC(=O)C(=C3C(=O)N(C)c4ccc(F)cc43)S2)cc1` [Compound 16], 15 ± 1 µM.

On to `COc1ccc(S(=O)(=O)NC2=NC(=O)C(=C3C(=O)N(C)c4cc(F)ccc43)S2)cc1` [Compound 17], for which the IC50 was 22.8 ± 2.3 µM.

For the compound `COc1ccc(S(=O)(=O)NC2=NC(=O)C(=Cc3cc4ccccc4[nH]3)S2)cc1` [Compound 18], the IC50 was 23.2 ± 2.7 µM. The same measure, in the same setting: in the case of `Cc1ccc(S(=O)(=O)NC2=NC(=O)C(=C3C(=O)Nc4ccc(Cl)cc43)S2)cc1` [Compound 19] it was 13.5 ± 1.7 µM. Same read-out and setting: in the case of `O=C1N=C(NS(=O)(=O)c2ccccc2)SC1=C1C(=O)Nc2ccc(Cl)cc21` [Compound 20] it was 15.7 ± 1.6 µM; in that of `O=C1N=C(NS(=O)(=O)c2cccc([N+](=O)[O-])c2)SC1=C1C(=O)Nc2ccc(Cl)cc21` [Compound 22], 12 ± 2 µM. Same read-out and setting: as for `O=C1N=C(NS(=O)(=O)c2ccc(F)cc2Cl)SC1=C1C(=O)Nc2ccc(Cl)cc21` [Compound 24], the figure is 14 ± 1.5 µM. `CS(=O)(=O)NC1=NC(=O)C(=C2C(=O)Nc3ccc(Cl)cc32)S1` [Compound 29] returned an IC50 of 36.2 ± 2.8 µM. The same measure, in the same setting: in the case of `O=C1N=C(NS(=O)(=O)c2ccc(C(F)(F)F)cc2)SC1=C1C(=O)Nc2ccc(Cl)cc21` [Compound 30] it was 13.6 ± 3.6 µM.

Turning to `O=C1N=C(NS(=O)(=O)c2ccc3ccccc3c2)SC1=C1C(=O)Nc2ccc(Cl)cc21` [Compound 31], the IC50 is 9.9 ± 1.3 µM. Turning to `O=C1N=C(NS(=O)(=O)c2ccc(F)cc2)SC1=C1C(=O)Nc2ccc(Cl)cc21` [Compound 33], the IC50 turned out to be 30.4 ± 10.5 µM.

Consider `COC(=O)c1ccc(S(=O)(=O)NC2=NC(=O)C(=C3C(=O)N(C)c4ccc(Br)cc43)S2)cc1` [Compound 48], for which the IC50 is 29.4 ± 7.5 µM. Still for that read-out and setting: in the case of `CN1C(=O)C(=C2SC(NS(=O)(=O)c3cccc(C(=O)O)c3)=NC2=O)c2cc(Br)ccc21` [Compound 49] it was 3 µM; in that of `O=C1CSC(NS(=O)(=O)c2ccccc2)=N1` [Compound Ia], more than 100 µM.

The same test, now with this note: 50 nM METTL16 MTD, 5 nM FAM-MAT2A-hp1; given as 'inactive'.
Turning to `COc1ccc(S(=O)(=O)NC2=NC(=O)C(=C3C(=O)N(c4ccccc4)c4ccccc43)S2)cc1` [Compound 10], the “IC50 class in the FP assay (MAT2A-hp1)” value was “inactive”.

With `COc1ccc(S(=O)(=O)NC2=NC(=O)C(=C3C(=O)Nc4cc(F)ccc43)S2)cc1` [Compound 12], the “IC50 class in the FP assay (MAT2A-hp1)” value is “inactive”. Same read-out and setting: in the case of `CC(C)(C)c1ccc(S(=O)(=O)NC2=NC(=O)C(=C3C(=O)Nc4ccc(Cl)cc43)S2)cc1` [Compound 23] it was “inactive”. Still for that read-out and setting: as for `O=C1N=C(NS(=O)(=O)c2ccc(C3CCCCC3)cc2)SC1=C1C(=O)Nc2ccc(Cl)cc21` [Compound 25], the entry is “inactive”. In the case of `O=C1N=C(NS(=O)(=O)c2ccc(-c3ccccc3)cc2)SC1=C1C(=O)Nc2ccc(Cl)cc21` [Compound 26], the “IC50 class in the FP assay (MAT2A-hp1)” value was “inactive”. As for `Cc1ccc(C(=O)NC2=NC(=O)C(=C3C(=O)Nc4ccc(Cl)cc43)S2)cc1` [Compound 34], the “IC50 class in the FP assay (MAT2A-hp1)” value is “inactive”. Same read-out and setting: as for `COc1ccc(C(=O)NC2=NC(=O)C(=C3C(=O)Nc4ccc(Cl)cc43)S2)cc1` [Compound 35], the entry is “inactive”.

Consider `COc1ccc(C(=O)NC2=NC(=O)C(=C3C(=O)Nc4ccc(Cl)cc43)S2)cc1OC` [Compound 36], for which the “IC50 class in the FP assay (MAT2A-hp1)” value was “inactive”. With `O=C1N=C(NC(=O)c2ccc(F)cc2)SC1=C1C(=O)Nc2ccc(Cl)cc21` [Compound 37], the “IC50 class in the FP assay (MAT2A-hp1)” value was “inactive”.

`COc1ccc(S(=O)(=O)NC2=NC(=O)C(=C3C(=O)Nc4ccc(Cl)cc43)O2)cc1` [Compound 38]: the “IC50 class in the FP assay (MAT2A-hp1)” value is “inactive”. On the same count and under the same terms, in the case of `O=C1CSC(NS(=O)(=O)c2ccccc2)=N1` [Compound Ia] it was “inactive”.

The same test, now with this note: 42 compared to compound 4; methyl ester 48 compared to the carboxylic acid analogue.
Consider `COC(=O)c1ccc(S(=O)(=O)NC2=NC(=O)C(=C3C(=O)N(C)c4ccc(Br)cc43)S2)cc1` [Compound 48], for which the “fold decrease in inhibitory activity (FP assay)” value amounted to 20 fold.

The test is the same for the next values; noted with them: FAM-MAT2A-hp1 RNA.
Take `COc1ccc(S(=O)(=O)NC2=NC(=O)C(=C3C(=O)Nc4ccc(Cl)cc43)O2)cc1` [Compound 38]: the “inhibitory activity against METTL16 in the FP assay, in words” value is “did not show inhibitory activity”.

What is called IC50 is the midpoint of a concentration-inhibition curve. A higher IC50 goes with lower potency.

The record behind these values is paper PMC11040665, “Aminothiazolone Inhibitors Disrupt the Protein–RNA Interaction of METTL16 and Modulate the m^6A RNA Modification” (JACS Au, 2024).
